What was measured:
Format in all cases: in vivo, human
group of experts [1] = assay: Sensory evaluation of Balansin A and Balansin B by a group of experts; details: 50 ppm in water and in a 5 wt % aqueous saccharose solution; Balansin A described in the aqueous solution
Excerpt: A group of experts tasted and sensorily evaluated the two isolated compounds Balansin A and Balansin B from Example 4, each at a concentration of 50 ppm in water and a 5 wt % aqueous saccharose solution.

[2] = test system: group of at least five persons; assay: Intrinsic sweetness against a saccharose reference series (saccharose equivalents); details: 50 ppm, against saccharose reference series in water
Excerpt: To determine the sweet impression of the extracts according to the invention or of the compounds according to the invention of the formula (I) compared to an aqueous saccharose solution, an aqueous solution of one or a plurality of compounds of the formula (I) is produced in the same concentration as is present in the orally consumable formulation under study. This aqueous solution is then compared and rated for taste by a group of at least five persons against a reference series of different saccharose concentrations in water. In this way, the saccharose equivalence is determined (indicated in saccharose equivalents), in other words, the concentration of the saccharose solution, whose sweet impression is equivalent to the sweet impression of the concentration of compounds of the formula (I). Preferred concentrations of the saccharose reference solution are 0; 0.25; 0.5; 0.75; 1; 1.5; 2; 3; 4 and 5 wt % saccharose in water. If necessary, other concentrations, particularly higher concentrations, can also be used for the reference series. The ascertained saccharose equivalent is obtained from the mean value of the individual rating of the individual panelists. The panelists are preferably persons who have experience in the field of tasting, are of different age and gender and come from different backgrounds. […]

group of experts [3] = assay: Reinforcing the sweet impression of a 5 wt % saccharose solution; details: for % Reinforcement of the sweet impression: versus saccharose solution alone; for Sweet impression (1-10) with: rating 1 [not sweet] to 10 [extremely sweet]
Procedure: In order to quantify the reinforcement of the sweet impression, the sweetness of a 5 wt %-containing saccharose solution and of a sample which contained 5 wt % saccharose and a quantity of the test substance or test extract was determined by a group of experts (rating 1 [not sweet] to 10 [extremely sweet]). The analysis was performed as a calculation of the […] (in %) of the sweet impression from the average values of the assessments of the saccharose solution and of the solution containing saccharose and Compound 2 (p was determined as a significance measure according to the paired, two-tailed Student's statistical test).

[4] = 50 ppm in 5 wt % saccharose solution
[5] = 25 ppm in 5 wt % saccharose solution

Structure (SMILES) | Sensory evaluation (taste description) (group of experts [1]) | Intrinsic sweetness, equivalent to the sweetness of saccharose [2] [% saccharose] | % Reinforcement of the sweet impression (group of experts [3]; [4]) | Sweet impression (1-10) with (group of experts [3]; [4]) | % Reinforcement of the sweet impression (group of experts [3]; [5]) | Sweet impression (1-10) with (group of experts [3]; [5])
CC(C)(O)C(O)C/C=C(\CO)[C@H]1CC[C@]2(C)[C@@H]1CC[C@@H]1[C@@]3(C)CC[C@H](O[C@@H]4O[C@H](COC5OC(CO)[C@@H](O)[C@H](O)[C@H]5O)[C@@H](O)[C@H](O)[C@H]4OC4O[C@H](CO)[C@@H](O)[C@H](O)[C@H]4O)C(C)(C)[C@@H]3CC[C@]12C (some centres unmarked) [Balansin B] | slightly bitter, slightly sweetener-type and weakly ethanolic, but otherwise displayed no noticeable intrinsic taste | 1 | 31% (p < 0.0005) | 6.7 ± 1.1 |  | 
CC(C)(O)C(O)C/C=C(\CO)[C@H]1CC[C@]2(C)[C@@H]1CC[C@@H]1[C@@]3(C)CC[C@H](O[C@@H]4O[C@H](CO)[C@@H](O)[C@H](O)[C@H]4OC4O[C@H](CO)[C@@H](O)[C@H](O)[C@H]4O)C(C)(C)[C@@H]3CC[C@]12C (some centres unmarked) [Balansin A] | intensely sweet, also as slightly bitter and displayed a sweetener-type note | 2 |  |  | 48% (p < 0.00005) | 7.2 ± 1.4
